Earlier results, collected in paper PMC12690571, “Green Synthesis of a Hyaluronan-Based Multimeric A9 Peptide System: Polysaccharide-A9 Conjugate with Enhanced HER2 Receptor Binding Affinity and Potential Biomedical Applications as an Active Material” (Biomacromolecules, 2025).

Test system: HER2 receptor
Set-up: method as in not printed at the place
Details: A9 peptide; introduction, earlier work, ref not given

H-QDVNTAVAW-NH2 [A9]
binding affinity to HER2 receptor (in words): binds with high affinity
